Test results from the supplement of paper PMC11061612.

Legend:
Test in all cases: combination Emax (second highest fraction inhibited in the dose matrix, 72 h); higher = more inhibition; extreme values may be limits of the assay
YH-13 (Glioblastoma) = test system: YH-13 (Glioblastoma)
In short: (§1)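 After 24 hours at 37°C and 5% CO2 in 1536-well plates, cells in DMEM/F12 or RPMI plus 10% FBS received two-drug dose matrices for 72 hours. Viability came from CellTiter-Glo 2.0 luminescence and was scaled as inhibition, anchored at 0 by vehicle wells and at 1 by blank wells. Combination Emax is taken as the second-highest inhibition in the matrix, and Bliss excess as the observed combination effect less EA + EB − EA·EB, with EA and EB the single-agent effects.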

[1] = test system: KARPAS-299 (T-Cell Non-Hodgkin's Lymphoma)
In short: as §1

TK10 (Kidney Carcinoma) = test system: TK10 (Kidney Carcinoma)
In short: as §1

[2] = test system: LU-65 (Non-Small Cell Lung Carcinoma)
In short: as §1

[3] = test system: NCI-H1915 (Non-Small Cell Lung Carcinoma)
In short: as §1

[4] = test system: Caov-4 (Ovarian Carcinoma)
In short: as §1

[5] = test system: NUGC-3 (Gastric Carcinoma)
In short: as §1

[6] = test system: HGC-27 (Gastric Carcinoma)
In short: as §1

[7] = test system: SCC-15 (Oral Cavity Carcinoma)
In short: as §1

[8] = test system: MLMA (Other Blood Carcinomas)
In short: as §1

[9] = test system: OVCAR-4 (Ovarian Carcinoma)
In short: as §1

[10] = test system: EoL-1-cell (Acute Myeloid Leukemia)
In short: as §1

[11] = test system: TE-1 (Esophageal Squamous Cell Carcinoma)
In short: as §1

[12] = test system: KMOE-2 (Acute Myeloid Leukemia)
In short: as §1

[13] = test system: OE19 (Esophageal Adenocarcinoma)
In short: as §1

[14] = test system: AMO-1 (Plasma Cell Myeloma)
In short: as §1

[15] = test system: NCI-H358 (Lung Adenocarcinoma)
In short: as §1

[16] = test system: HSC-4 (Oral Cavity Carcinoma)
In short: as §1

EW-24 (Ewing's Sarcoma) = test system: EW-24 (Ewing's Sarcoma)
In short: as §1

PWR-1E (Non-Cancerous) = test system: PWR-1E (Non-Cancerous)
In short: as §1

| SMILES | combination Emax (YH-13 (Glioblastoma)) | combination Emax [1] | combination Emax (TK10 (Kidney Carcinoma)) | combination Emax [2] | combination Emax [3] | combination Emax [4] | combination Emax [5] | combination Emax [6] | combination Emax [7] | combination Emax [8] | combination Emax [9] | combination Emax [10] | combination Emax [11] | combination Emax [12] | combination Emax [13] | combination Emax [14] | combination Emax [15] | combination Emax [16] | combination Emax (EW-24 (Ewing's Sarcoma)) | combination Emax (PWR-1E (Non-Cancerous)) |
| --- | --- | --- | --- | --- | --- | --- | --- | --- | --- | --- | --- | --- | --- | --- | --- | --- | --- | --- | --- | --- |
| CC1(C)CCC(CN2CCN(c3ccc(C(=O)NS(=O)(=O)c4ccc(NCC5CCOCC5)c([N+](=O)[O-])c4)c(Oc4cnc5[nH]ccc5c4)c3)CC2)=C(c2ccc(Cl)cc2)C1 [Venetoclax] + C1CN(CCC1(C(=O)N[C@@H](CCO)C2=CC=C(C=C2)Cl)N)C3=NC=NC4=C3C=CN4 [Capivasertib] (first compound max 1 µM, 7x7, partner max 3 µM) | 0.259 | 0.837 | 0.339 | 0.462 | 0.141 | 0.282 | 0.227 | 0.814 | 0.226 | 0.866 | 0.1 | 1 | 0.162 | 0.581 | 0.306 | 0.76 | 0.33 | 0.306 | 0.395 | 0.203 |
| CC1(C)CCC(CN2CCN(c3ccc(C(=O)NS(=O)(=O)c4ccc(NCC5CCOCC5)c([N+](=O)[O-])c4)c(Oc4cnc5[nH]ccc5c4)c3)CC2)=C(c2ccc(Cl)cc2)C1 [Venetoclax] + C=CCn1c(=O)c2cnc(Nc3ccc(N4CCN(C)CC4)cc3)nc2n1-c1cccc(C(C)(C)O)n1 [AZD1775] (first compound max 1 µM, partner max 1 µM) | 0.381 | 0.951 | 0.591 | 0.733 | 0.634 | 0.811 | 0.596 | 0.54 | 0.327 | 0.945 | 0.588 | 1 | 0.603 | 0.966 | 0.223 | 0.921 | 0.798 | 0.372 | 0.34 | 0.548 |
| CC1(C)CCC(CN2CCN(c3ccc(C(=O)NS(=O)(=O)c4ccc(NCC5CCOCC5)c([N+](=O)[O-])c4)c(Oc4cnc5[nH]ccc5c4)c3)CC2)=C(c2ccc(Cl)cc2)C1 [Venetoclax] + CCN(CCO)CCCOc1ccc2c(Nc3cc(CC(=O)Nc4cccc(F)c4)[nH]n3)ncnc2c1 [AZD2811] (first compound max 1 µM, 7x7, partner max 1 µM) | 0.576 | 0.818 | 0.16 | 0.249 | 0.224 | 0.263 | 0.298 | 0.809 | 0.295 | 0.841 | 0.333 | 1 | 0.298 | 0.293 | 0.779 | 0.816 | 0.276 | 0.203 | 0.457 | 0.455 |
| CC1(C)CCC(CN2CCN(c3ccc(C(=O)NS(=O)(=O)c4ccc(NCC5CCOCC5)c([N+](=O)[O-])c4)c(Oc4cnc5[nH]ccc5c4)c3)CC2)=C(c2ccc(Cl)cc2)C1 [Venetoclax] + CN(C)CCCOc1ccc(-c2ccc3ncc4c(c3c2)n(C2CCOCC2)c(=O)n4C)cn1 [AZD0156] (first compound max 1 µM, 7x7, partner max 1 µM) | 0.198 | 0.807 | 0.304 | 0.362 | 0.285 | 0.226 | 0.276 | 0.362 | 0.245 | 0.93 | 0.173 | 0.986 | 0.098 | 0.207 | 0.281 | 0.814 | 0.325 | 0.14 | 0.323 | 0.217 |
| CC1(C)CCC(CN2CCN(c3ccc(C(=O)NS(=O)(=O)c4ccc(NCC5CCOCC5)c([N+](=O)[O-])c4)c(Oc4cnc5[nH]ccc5c4)c3)CC2)=C(c2ccc(Cl)cc2)C1 [Venetoclax] + COc1cc(Nc2ncc3c(n2)-c2ccc(Cl)cc2C(c2c(F)cccc2OC)=NC3)ccc1C(=O)O [Alisertib] (first compound max 1 µM, 7x7, partner max 10 µM) | 0.549 | 0.762 | 0.35 | 0.314 | 0.455 | 0.447 | 0.436 | 0.919 | 0.378 | 0.866 | 0.344 | 1 | 0.635 | 0.928 | 0.785 | 0.868 | 0.442 | 0.28 | 0.428 | 0.859 |
| CC1(C)CCC(CN2CCN(c3ccc(C(=O)NS(=O)(=O)c4ccc(NCC5CCOCC5)c([N+](=O)[O-])c4)c(Oc4cnc5[nH]ccc5c4)c3)CC2)=C(c2ccc(Cl)cc2)C1 [Venetoclax] + C[C@@H]1COCCN1C2=NC(=NC(=C2)C3(CC3)[S@](=N)(=O)C)C4=C5C=CNC5=NC=C4 [AZD6738] (first compound max 1 µM, 7x7, partner max 10 µM) | 0.5 | 0.954 | 0.609 | 0.652 | 0.538 | 0.751 | 0.711 | 0.8 | 0.442 | 0.909 | 0.684 | 1 | 0.543 | 0.73 | 0.673 | 0.904 | 0.731 | 0.601 | 0.731 | 0.932 |
| CC1(C)CCC(CN2CCN(c3ccc(C(=O)NS(=O)(=O)c4ccc(NCC5CCOCC5)c([N+](=O)[O-])c4)c(Oc4cnc5[nH]ccc5c4)c3)CC2)=C(c2ccc(Cl)cc2)C1 [Venetoclax] + C[C@@H](Nc1cc(F)cc(F)c1)c1cc(C(=O)N(C)C)cc2c(=O)cc(N3CCOCC3)oc12 [AZD8186] (first compound max 1 µM, 7x7, partner max 3 µM) | 0.441 | 0.829 | 0.465 | 0.199 | 0.118 | 0.171 | 0.183 | 0.54 | 0.166 | 0.89 | 0.138 | 1 | 0.217 | 0.323 | 0.306 | 0.842 | 0.149 | 0.177 | 0.26 | 0.173 |
| CC1(C)CCC(CN2CCN(c3ccc(C(=O)NS(=O)(=O)c4ccc(NCC5CCOCC5)c([N+](=O)[O-])c4)c(Oc4cnc5[nH]ccc5c4)c3)CC2)=C(c2ccc(Cl)cc2)C1 [Venetoclax] + Cc1cc2ncnn2cc1Nc1ncc2c(n1)n(C1CCOCC1)c(=O)n2C [AZD7648] (first compound max 1 µM, 7x7, partner max 10 µM) | 0.3 | 0.837 | 0.281 | 0.378 | 0.641 | 0.263 | 0.409 | 0.485 | 0.212 | 0.86 | 0.19 | 0.996 | 0.0373 | 0.427 | 0.281 | 0.73 | 0.293 | 0.11 | 0.38 | 0.164 |
| CC1(C)CCC(CN2CCN(c3ccc(C(=O)NS(=O)(=O)c4ccc(NCC5CCOCC5)c([N+](=O)[O-])c4)c(Oc4cnc5[nH]ccc5c4)c3)CC2)=C(c2ccc(Cl)cc2)C1 [Venetoclax] + Cn1cnc2c(F)c(Nc3ccc(Br)cc3Cl)c(C(=O)NOCCO)cc21 [Selumetinib] (first compound max 1 µM, 7x7, partner max 3 µM) | 0.181 | 0.812 | 0.322 | 0.538 | 0.423 | 0.364 | 0.392 | 0.142 | 0.264 | 0.93 | 0.209 | 1 | 0.245 | 0.992 | 0.182 | 0.806 | 0.343 | 0.243 | 0.154 | 0.0808 |
